{
  "source": "patent US5624941A",
  "about": "“Pyrazole derivatives, method of preparing them and pharmaceutical compositions in which they are present” (Sanofi, priority 1992, dated 1997)",
  "key": {"cannabinoid receptors": {"target": "T1, cannabinoid receptors (Mus musculus, UniProt P47746)", "T1 construct": "from tissue; host or cells: whole living mouse (in vivo hypothermia test)", "T1 sequence (P47746 whole entry)": "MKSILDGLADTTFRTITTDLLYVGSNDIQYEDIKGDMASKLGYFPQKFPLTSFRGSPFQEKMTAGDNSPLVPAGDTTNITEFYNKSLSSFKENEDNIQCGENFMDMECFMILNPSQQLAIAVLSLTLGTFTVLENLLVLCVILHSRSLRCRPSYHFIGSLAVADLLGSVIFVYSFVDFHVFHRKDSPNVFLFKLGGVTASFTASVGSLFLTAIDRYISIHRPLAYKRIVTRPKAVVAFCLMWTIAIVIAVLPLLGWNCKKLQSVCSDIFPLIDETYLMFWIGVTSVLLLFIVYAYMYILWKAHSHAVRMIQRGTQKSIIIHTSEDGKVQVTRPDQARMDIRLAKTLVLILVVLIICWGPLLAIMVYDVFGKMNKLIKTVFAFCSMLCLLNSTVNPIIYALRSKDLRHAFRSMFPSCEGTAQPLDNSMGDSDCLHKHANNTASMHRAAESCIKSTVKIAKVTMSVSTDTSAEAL", "test": "antagonism of hypothermia induced by WIN 55 212-2 in mice", "format": "in vivo"}, "rats": {"test_system": "rats", "test": "test of the central memory in rats (Perio et al.)", "format": "in vivo", "conditions": "subcutaneous administration"}, "[1]": {"test": "penetration of the blood-brain barrier / central nervous system", "format": "in vivo"}},
  "data": [
    {"smiles": "Cc1c(C(=O)NN2CCCCC2)nn(-c2ccc(Cl)cc2Cl)c1-c1ccc(Cl)cc1", "note": "[N-piperidino-5-(4-chlorophenyl)-1-(2,4-dichlorophenyl)-4-methyl-pyrazole-3-carboxamide]", "values": [
      {"measurement": "toxicity", "setting": "toxicity", "value": "compatible with its use as a psychotropic drug"},
      {"measurement": "duration of action in the hypothermia test", "setting": "cannabinoid receptors; mice, after oral administration of 3 mg/kg", "value": "8 to 10", "unit": "h"},
      {"measurement": "ED50, antagonism of WIN 55 212-2 induced hypothermia", "setting": "cannabinoid receptors; mice, i.p.", "value": 0.3, "unit": "mg/kg"},
      {"measurement": "ED50, antagonism of WIN 55 212-2 induced hypothermia", "setting": "cannabinoid receptors; mice, per os", "value": 0.4, "unit": "mg/kg"},
      {"measurement": "activity upon oral administration", "setting": "cannabinoid receptors; oral", "value": "active upon oral administration"},
      {"measurement": "memory capacities of rats in the test of the central memory", "setting": "rats", "value": "improves the memory capacities of rats"},
      {"measurement": "penetration in the central nervous system", "setting": "[1]; confirmed by antagonism of agonist-induced hypothermia", "value": "good penetration"},
      {"measurement": "penetration of the blood-brain barrier", "setting": "[1]; in vivo", "value": "penetrates the blood-brain barrier"}
    ]}
  ]
}
